Test [1] concerns the target Cyclin-dependent kinase-like 1 (Homo sapiens) (UniProt Q00532).
Test [2] has as its target Cyclin-dependent kinase 6 (Homo sapiens) (UniProt Q00534).
In test [3] the target is Serine/threonine-protein kinase 38 (Homo sapiens) (UniProt Q15208).
Test [4] has as its target Serine/threonine-protein kinase 26 (Homo sapiens) (UniProt Q9P289).
Test [5] addresses Serine/threonine-protein kinase 16 (Homo sapiens) (UniProt O75716).
Test [6] has as its target Cyclin-dependent kinase 16 (Homo sapiens) (UniProt Q00536).
Test [7] deals with Serine/threonine-protein kinase pim-3 (Homo sapiens) (UniProt Q86V86).
Test [8] concerns the target Calcium/calmodulin-dependent protein kinase type 1D (Homo sapiens) (UniProt Q8IU85).
For test [9], the target named is Mitogen-activated protein kinase 11 (Homo sapiens, UniProt Q15759).
Test [10] deals with Mitogen-activated protein kinase 3 (Homo sapiens, UniProt P27361).
The target in test [11] is T1, Serine/threonine-protein kinase 17A (Homo sapiens) (UniProt Q9UEE5).
T1 sequence (whole entry): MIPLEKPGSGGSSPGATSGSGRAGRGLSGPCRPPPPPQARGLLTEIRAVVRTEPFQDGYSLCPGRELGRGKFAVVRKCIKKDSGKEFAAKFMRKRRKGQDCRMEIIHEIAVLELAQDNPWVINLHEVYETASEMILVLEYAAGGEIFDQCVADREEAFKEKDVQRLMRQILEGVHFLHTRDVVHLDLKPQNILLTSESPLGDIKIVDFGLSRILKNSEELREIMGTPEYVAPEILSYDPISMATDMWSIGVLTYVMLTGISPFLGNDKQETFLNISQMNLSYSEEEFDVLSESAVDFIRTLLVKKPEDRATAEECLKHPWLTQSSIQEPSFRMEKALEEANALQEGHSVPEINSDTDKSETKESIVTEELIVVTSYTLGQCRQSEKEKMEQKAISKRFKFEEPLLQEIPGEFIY

For test [12], the target named is T2, Dual specificity mitogen-activated protein kinase kinase 6 (Homo sapiens) (UniProt P52564).
T2 sequence (whole entry): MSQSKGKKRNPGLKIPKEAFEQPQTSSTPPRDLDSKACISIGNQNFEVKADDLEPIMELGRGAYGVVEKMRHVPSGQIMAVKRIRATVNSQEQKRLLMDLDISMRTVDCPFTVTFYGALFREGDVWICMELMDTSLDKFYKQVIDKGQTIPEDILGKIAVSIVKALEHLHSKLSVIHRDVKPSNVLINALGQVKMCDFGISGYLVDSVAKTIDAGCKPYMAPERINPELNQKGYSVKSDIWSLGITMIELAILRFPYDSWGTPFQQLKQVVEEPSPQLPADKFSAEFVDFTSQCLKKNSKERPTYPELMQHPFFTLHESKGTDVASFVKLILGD

For test [13], the target named is Serine/threonine-protein kinase PAK 4 (Homo sapiens) (UniProt O96013).
Test [14] addresses T3, Lymphokine-activated killer T-cell-originated protein kinase (Homo sapiens) (UniProt Q96KB5).
T3 sequence (whole entry): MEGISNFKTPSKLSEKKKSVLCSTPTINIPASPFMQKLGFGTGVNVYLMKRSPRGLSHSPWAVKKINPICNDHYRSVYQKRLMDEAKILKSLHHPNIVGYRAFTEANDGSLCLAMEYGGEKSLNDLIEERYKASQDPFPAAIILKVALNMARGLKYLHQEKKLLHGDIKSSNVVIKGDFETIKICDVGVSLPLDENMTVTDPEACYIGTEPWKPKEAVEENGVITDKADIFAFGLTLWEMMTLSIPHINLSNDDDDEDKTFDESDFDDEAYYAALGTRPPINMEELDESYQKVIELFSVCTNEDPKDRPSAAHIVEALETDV

The target of test [15] is Ribosomal protein S6 kinase alpha-3 (Homo sapiens) (UniProt P51812).
Test [16] has as its target Serine/threonine-protein kinase PAK 5 (Homo sapiens) (UniProt Q9P286).
For test [17], the target named is T4, Serine/threonine-protein kinase Nek2 (Homo sapiens) (UniProt P51955).
T4 sequence (whole entry): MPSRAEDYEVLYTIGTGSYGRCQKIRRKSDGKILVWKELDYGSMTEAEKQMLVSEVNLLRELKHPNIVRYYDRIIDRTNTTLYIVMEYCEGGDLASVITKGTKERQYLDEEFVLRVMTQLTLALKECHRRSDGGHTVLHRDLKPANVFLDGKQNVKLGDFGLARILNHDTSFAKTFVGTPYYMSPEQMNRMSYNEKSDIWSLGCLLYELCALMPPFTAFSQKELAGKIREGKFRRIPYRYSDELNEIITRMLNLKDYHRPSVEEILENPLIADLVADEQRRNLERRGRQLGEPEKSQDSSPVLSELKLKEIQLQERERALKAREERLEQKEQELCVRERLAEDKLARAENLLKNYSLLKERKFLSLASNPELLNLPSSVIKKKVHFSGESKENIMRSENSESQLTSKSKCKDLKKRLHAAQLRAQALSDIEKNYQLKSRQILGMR

For test [18], the target named is T5, Serine/threonine-protein kinase 4 (Homo sapiens) (UniProt Q13043).
T5 sequence (whole entry): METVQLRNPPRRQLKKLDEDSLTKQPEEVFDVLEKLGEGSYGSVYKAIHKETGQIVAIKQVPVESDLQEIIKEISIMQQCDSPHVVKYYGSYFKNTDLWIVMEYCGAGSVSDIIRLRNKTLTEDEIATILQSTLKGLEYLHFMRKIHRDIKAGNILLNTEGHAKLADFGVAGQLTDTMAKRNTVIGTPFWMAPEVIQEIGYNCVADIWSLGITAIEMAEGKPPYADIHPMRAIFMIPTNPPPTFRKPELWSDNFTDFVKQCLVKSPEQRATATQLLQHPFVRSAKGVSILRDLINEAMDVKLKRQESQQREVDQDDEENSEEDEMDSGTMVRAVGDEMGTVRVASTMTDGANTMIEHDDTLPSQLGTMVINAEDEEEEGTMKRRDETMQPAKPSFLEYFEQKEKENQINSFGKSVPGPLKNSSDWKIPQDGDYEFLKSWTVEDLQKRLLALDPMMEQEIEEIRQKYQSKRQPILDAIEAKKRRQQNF

SMILES strings stand for the structures.

For orientation: ΔTm means the change in melting temperature against a reference sample.

Cyclin-dependent kinase 6 (Homo sapiens), sequence (Q00534 whole entry): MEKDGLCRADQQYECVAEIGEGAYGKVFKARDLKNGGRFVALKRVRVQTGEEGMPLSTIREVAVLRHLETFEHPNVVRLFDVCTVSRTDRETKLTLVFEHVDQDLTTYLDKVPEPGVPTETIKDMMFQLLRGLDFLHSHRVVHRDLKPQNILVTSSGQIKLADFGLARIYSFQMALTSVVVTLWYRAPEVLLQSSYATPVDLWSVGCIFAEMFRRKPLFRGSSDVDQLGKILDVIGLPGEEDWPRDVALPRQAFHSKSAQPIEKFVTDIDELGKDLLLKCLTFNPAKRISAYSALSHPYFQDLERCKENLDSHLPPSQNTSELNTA
Mitogen-activated protein kinase 3, sequence (P27361 whole entry): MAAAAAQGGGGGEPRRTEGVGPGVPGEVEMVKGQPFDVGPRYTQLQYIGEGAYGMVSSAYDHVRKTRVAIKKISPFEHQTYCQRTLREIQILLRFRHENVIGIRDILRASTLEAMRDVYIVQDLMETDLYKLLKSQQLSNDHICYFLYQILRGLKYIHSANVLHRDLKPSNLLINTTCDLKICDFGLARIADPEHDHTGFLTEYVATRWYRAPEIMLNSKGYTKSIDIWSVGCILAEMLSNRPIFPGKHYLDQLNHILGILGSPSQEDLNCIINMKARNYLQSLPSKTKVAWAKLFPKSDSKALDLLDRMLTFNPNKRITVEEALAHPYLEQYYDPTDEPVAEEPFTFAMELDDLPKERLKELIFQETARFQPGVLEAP
Mitogen-activated protein kinase 11, sequence (Q15759 whole entry): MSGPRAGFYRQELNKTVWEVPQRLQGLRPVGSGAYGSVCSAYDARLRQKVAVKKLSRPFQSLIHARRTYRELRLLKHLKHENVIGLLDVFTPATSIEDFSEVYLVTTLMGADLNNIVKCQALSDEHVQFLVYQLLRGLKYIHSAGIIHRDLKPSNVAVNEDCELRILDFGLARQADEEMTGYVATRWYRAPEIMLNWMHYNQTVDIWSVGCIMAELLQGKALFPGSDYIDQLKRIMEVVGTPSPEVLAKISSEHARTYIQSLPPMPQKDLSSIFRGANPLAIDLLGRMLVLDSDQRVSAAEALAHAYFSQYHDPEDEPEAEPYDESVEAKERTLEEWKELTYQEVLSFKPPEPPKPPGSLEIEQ
Calcium/calmodulin-dependent protein kinase type 1D (Homo sapiens), sequence (Q8IU85 whole entry, looked up): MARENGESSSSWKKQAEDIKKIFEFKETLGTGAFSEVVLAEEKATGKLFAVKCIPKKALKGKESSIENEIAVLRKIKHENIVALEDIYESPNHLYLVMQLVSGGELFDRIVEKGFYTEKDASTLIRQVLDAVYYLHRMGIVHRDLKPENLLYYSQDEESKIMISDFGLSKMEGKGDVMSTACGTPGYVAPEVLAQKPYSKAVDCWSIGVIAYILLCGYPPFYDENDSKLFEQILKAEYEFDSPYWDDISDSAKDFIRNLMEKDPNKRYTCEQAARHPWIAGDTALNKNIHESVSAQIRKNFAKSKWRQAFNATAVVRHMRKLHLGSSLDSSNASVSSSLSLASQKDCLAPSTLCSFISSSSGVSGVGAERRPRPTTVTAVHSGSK
Cyclin-dependent kinase-like 1 (Homo sapiens), sequence (Q00532 whole entry): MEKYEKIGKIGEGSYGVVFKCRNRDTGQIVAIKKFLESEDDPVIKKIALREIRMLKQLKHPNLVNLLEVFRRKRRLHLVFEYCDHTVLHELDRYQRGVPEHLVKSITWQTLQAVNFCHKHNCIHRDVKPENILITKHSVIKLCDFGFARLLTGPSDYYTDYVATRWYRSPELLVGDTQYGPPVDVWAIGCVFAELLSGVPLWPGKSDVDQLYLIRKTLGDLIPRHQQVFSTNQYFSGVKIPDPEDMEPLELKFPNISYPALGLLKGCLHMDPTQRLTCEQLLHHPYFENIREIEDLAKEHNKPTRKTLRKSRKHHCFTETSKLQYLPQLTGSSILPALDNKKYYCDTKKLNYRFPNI
Serine/threonine-protein kinase 26 (Homo sapiens), sequence (Q9P289 2-416 limits assumed): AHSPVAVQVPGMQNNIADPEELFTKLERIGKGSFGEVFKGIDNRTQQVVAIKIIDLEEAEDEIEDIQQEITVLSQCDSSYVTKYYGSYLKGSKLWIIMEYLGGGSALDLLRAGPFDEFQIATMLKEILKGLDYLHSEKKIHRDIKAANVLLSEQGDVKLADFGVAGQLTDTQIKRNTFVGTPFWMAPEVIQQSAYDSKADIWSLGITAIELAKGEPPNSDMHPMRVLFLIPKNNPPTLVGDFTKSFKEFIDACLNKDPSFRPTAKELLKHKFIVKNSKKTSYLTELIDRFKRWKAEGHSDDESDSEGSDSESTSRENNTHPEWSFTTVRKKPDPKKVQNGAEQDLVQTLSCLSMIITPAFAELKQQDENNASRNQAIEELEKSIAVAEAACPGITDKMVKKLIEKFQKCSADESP
Serine/threonine-protein kinase 38 (Homo sapiens), sequence (Q15208 2-465 limits assumed): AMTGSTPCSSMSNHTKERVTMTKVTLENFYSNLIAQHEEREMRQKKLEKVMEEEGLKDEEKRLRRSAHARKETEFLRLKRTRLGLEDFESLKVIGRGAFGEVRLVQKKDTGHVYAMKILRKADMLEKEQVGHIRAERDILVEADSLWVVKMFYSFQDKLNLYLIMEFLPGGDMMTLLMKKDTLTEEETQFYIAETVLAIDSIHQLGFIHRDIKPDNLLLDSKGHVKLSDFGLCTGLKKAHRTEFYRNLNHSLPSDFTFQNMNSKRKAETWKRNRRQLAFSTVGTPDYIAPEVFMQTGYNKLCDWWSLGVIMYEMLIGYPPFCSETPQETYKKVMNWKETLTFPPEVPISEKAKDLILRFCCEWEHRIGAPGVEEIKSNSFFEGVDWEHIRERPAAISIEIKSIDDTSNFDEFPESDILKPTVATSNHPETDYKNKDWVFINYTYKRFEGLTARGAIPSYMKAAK
Serine/threonine-protein kinase PAK 5 (Homo sapiens), sequence (Q9P286 whole entry, looked up): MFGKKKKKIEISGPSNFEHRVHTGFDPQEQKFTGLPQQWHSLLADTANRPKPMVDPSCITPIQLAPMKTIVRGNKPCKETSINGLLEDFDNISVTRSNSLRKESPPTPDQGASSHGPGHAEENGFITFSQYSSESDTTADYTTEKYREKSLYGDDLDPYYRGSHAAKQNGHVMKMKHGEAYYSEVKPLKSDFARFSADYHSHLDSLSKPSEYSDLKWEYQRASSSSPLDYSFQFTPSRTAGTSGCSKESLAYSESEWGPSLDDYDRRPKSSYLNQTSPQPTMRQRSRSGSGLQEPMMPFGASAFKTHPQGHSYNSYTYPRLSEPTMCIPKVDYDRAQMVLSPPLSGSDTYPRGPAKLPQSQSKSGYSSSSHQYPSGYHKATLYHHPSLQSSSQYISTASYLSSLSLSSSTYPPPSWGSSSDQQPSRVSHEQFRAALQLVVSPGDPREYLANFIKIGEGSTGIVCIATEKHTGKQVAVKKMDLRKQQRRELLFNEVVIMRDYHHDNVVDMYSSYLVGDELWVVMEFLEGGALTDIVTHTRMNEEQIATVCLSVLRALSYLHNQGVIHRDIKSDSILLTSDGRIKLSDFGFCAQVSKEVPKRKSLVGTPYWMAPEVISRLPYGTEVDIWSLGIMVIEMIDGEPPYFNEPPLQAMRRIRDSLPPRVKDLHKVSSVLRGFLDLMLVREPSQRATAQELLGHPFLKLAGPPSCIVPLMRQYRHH
Serine/threonine-protein kinase 16 (Homo sapiens), sequence (O75716 whole entry): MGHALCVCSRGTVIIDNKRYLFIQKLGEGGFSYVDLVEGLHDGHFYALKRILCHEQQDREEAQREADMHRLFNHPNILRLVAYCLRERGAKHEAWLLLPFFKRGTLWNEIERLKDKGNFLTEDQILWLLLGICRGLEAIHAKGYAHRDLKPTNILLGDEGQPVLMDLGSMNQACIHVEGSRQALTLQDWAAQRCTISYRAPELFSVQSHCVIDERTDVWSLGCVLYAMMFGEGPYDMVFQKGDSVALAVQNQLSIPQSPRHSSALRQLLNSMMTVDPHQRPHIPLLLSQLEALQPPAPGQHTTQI
Cyclin-dependent kinase 16 (Homo sapiens), sequence (Q00536 whole entry): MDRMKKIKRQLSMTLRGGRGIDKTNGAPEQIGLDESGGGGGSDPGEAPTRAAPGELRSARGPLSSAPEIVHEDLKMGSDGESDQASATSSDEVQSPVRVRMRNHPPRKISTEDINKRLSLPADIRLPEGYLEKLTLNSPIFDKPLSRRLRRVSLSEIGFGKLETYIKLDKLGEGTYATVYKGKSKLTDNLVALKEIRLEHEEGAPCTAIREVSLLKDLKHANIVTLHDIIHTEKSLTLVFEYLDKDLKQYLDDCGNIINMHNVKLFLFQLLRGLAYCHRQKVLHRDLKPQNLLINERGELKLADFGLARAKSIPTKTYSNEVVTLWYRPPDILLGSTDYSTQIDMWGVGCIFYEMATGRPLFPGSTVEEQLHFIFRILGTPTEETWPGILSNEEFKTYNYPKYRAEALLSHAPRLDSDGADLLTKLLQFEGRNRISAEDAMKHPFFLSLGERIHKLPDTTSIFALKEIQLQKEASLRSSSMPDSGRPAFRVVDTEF

In the case of `CN(C)CC1CCn2c(c(C3=C(c4c[nH]c5ccccc45)C(=O)NC3=O)c3ccccc32)C1` (stereo unspecified), the ΔTm in test [1] amounted to 0.5 °C; in [2] it was 0.8 °C; in [3] it was 0.3 °C; in [4], 0 °C; in [5] it was 1.3 °C; in test [6], 3 °C. Further, the ΔTm in test [7] was 3.4 °C; in test [8] it was -0.1 °C; in [9], -0.3 °C; in test [10], -0.2 °C; in test [11], 5.3 °C; in test [12], 0.8 °C. The ΔTm in test [13] is 1.5 °C; in test [14], -0.8 °C; in [15], 0.8 °C; in test [16], 0.6 °C; in test [17], 1 °C; in [18], 4.9 °C.
For the compound `COc1cc2ncnc(Nc3cccc(Br)c3)c2cc1OC`, the ΔTm in test [1] is 0.1 °C; in test [2] it was 0.2 °C; in test [3], 0.4 °C; in [4], 1.2 °C; in [5] it was 0.4 °C; in test [6], -0.9 °C. Besides, the ΔTm amounted to 1.6 °C in [7]; 0.3 °C in test [8]; 1.8 °C in test [9]; 0.6 °C in test [10]; 3.3 °C in test [11]; 0.4 °C in test [12]. Further, the thermal shift (ΔTm) in [13] is 0.2 °C; in test [14] it was 0.3 °C; in test [15], 0.1 °C; in test [16] it was 0.3 °C; in [17] it was 0.6 °C; in test [18] it was 1.5 °C.
On to `Oc1ccc(-c2nc(-c3ccc(F)cc3)c(-c3ccncc3)[nH]2)cc1`, for which the ΔTm in [1] was -0.2 °C; in [2], 0.2 °C; in test [3] it was 0.7 °C; in [4] it was 0 °C; in test [5], 0.5 °C; in test [6], -0.4 °C. Also, the ΔTm in [7] was 1.3 °C; in test [8], -0.1 °C; in [9] it was 10.9 °C; in test [10], 0.4 °C; in test [11], 1 °C; in test [12], 0.3 °C. The ΔTm in test [13] is -0.3 °C; in test [14], 0.3 °C; in test [15], 0.3 °C; in test [16] it was 0.5 °C; in [17], 0.2 °C; in [18] it was 0.9 °C.
As for `CC(C)(C)c1cc(C=C2C(=O)C=CC2=O)cc(C(C)(C)C)c1O`, the ΔTm in test [1] was -5.5 °C; in test [2], -6.6 °C; in test [3], 0.4 °C; in test [4], 0.5 °C; in test [5] it was 0.2 °C; in test [6], 4.4 °C. Also, the ΔTm was 0.4 °C in [7]; -2.2 °C in test [8]; -1.5 °C in test [9]; 0.1 °C in test [10]; -5.3 °C in [11]; -2.5 °C in [12]. In addition, the ΔTm is 1.5 °C in [13]; -0.1 °C in test [14]; -5 °C in test [15]; 0.2 °C in test [16]; 1.1 °C in test [17]; 1.2 °C in test [18].
Take `O=Nc1c(-c2c(O)[nH]c3ccccc23)[nH]c2ccccc12`: the ΔTm in test [1] is 3.8 °C; in test [2], 3.3 °C; in test [3], 2.7 °C; in test [4], 2.5 °C; in test [5], 5.1 °C; in test [6], 3.2 °C. The ΔTm in test [7] stood at 6.4 °C; in [8] it was 1.1 °C; in [9], 0.7 °C; in test [10], 0.9 °C; in [11], 8.9 °C; in test [12] it was 3.6 °C. In addition, the shift in melting temperature (ΔTm) was determined as 1.7 °C in [13]; 0.5 °C in [14]; 0 °C in test [15]; 2.6 °C in test [16]; 2.5 °C in test [17]; 7.8 °C in test [18].
In the case of `O=C1Nc2ccc(I)cc2/C1=C\c1cc(Br)c(O)c(Br)c1`, the ΔTm in test [1] is -2.8 °C; in test [2], 0.3 °C; in test [3], 0.5 °C; in test [4] it was -0.4 °C; in test [5] it was 1 °C; in [6], -0.4 °C. In addition, the ΔTm is 6 °C in test [7]; -0.1 °C in [8]; -0.2 °C in test [9]; 0.5 °C in [10]; 4.8 °C in [11]; 1.6 °C in test [12]. The ΔTm in test [13] was -0.8 °C; in [14] it was 0.9 °C; in [15], 5.1 °C; in test [16] it was 1 °C; in test [17], -2.2 °C; in test [18], 4.1 °C.
Turning to `Nc1ncnc2c1c(I)cn2[C@@H]1O[C@H](CO)[C@@H](O)[C@H]1O`, the ΔTm is 0.2 °C in test [1]; -0.2 °C in [2]; 1.7 °C in test [3]; 1.4 °C in [4]; 3.9 °C in test [5]; 0.1 °C in test [6]. Besides, the ΔTm is 1.5 °C in [7]; 0.2 °C in test [8]; -0.4 °C in test [9]; 1.5 °C in test [10]; 2.8 °C in [11]; 2.7 °C in test [12]. The ΔTm in test [13] was 1.1 °C; in test [14], 0 °C; in test [15], 1.4 °C; in [16], 0.7 °C; in [17], 0.4 °C; in test [18] it was 4.7 °C.

For the origin of these results see ChEMBL document CHEMBL1145498, “A systematic interaction map of validated kinase inhibitors with Ser/Thr kinases” (Proc Natl Acad Sci U S A, 2007).
